In one assay the target is T1, human orexin-2 receptor (Homo sapiens, UniProt O43614).
T1 construct: expressed in transfected cells; host or cells: CHO cells
T1 sequence (O43614 1-444): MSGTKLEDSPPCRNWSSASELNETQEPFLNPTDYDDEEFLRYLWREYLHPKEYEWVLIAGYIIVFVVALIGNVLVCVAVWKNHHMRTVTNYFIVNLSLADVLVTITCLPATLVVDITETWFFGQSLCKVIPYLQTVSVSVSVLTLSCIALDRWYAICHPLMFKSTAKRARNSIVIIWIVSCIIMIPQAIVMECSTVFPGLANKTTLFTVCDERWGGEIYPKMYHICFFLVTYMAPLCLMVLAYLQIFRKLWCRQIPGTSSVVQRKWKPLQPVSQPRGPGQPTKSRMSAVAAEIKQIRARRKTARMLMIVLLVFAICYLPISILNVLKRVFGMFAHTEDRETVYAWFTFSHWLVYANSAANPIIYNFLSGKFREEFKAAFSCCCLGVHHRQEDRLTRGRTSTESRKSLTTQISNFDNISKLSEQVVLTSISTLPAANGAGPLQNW
Put plainly: FLIPR Ca2+ Flux Assay, hOX2R. The format is cell-based. Particulars: CHO cells expressing the human orexin-2 receptor; agonist 70 pM Ala-6,12 orexin-A. As to the method:
The utility of the compounds in accordance with the present invention as orexin receptor OX1R and/or OX2R antagonists may be readily determined without undue experimentation by methodology well known in the art, including the “FLIPR Ca^2+ Flux Assay” (Okumura et al., Biochem. Biophys. Res. Comm. 280:976-981, 2001). In a typical experiment the OX1 and OX2 receptor antagonistic activity of the compounds of the present invention was determined in accordance with the following experimental method. For intracellular calcium measurements, Chinese hamster ovary (CHO) cells expressing the rat orexin-1 receptor or the human orexin-2 receptor, are grown in Iscove's modified DMEM containing 2 mM L-glutamine, […], 1% hypoxanthine-thymidine supplement, 100 U/ml penicillin, 100 μg/ml streptomycin and 10% heat-inactivated fetal calf serum (FCS). The cells are seeded at 20,000 cells/well into Becton-Dickinson black 384-well clear bottom sterile plates coated with poly-D-lysine. All reagents were from GIBCO-Invitrogen Corp. The seeded plates are incubated overnight at 37° C. and 5% CO2. Ala-6,12 human orexin-A as the agonist is prepared as a 1 mM stock solution in 1% bovine serum albumin (BSA) and diluted in assay buffer (HBSS containing 20 mM HEPES, 0.1% BSA and 2.5 mM probenecid, pH7.4) for use in the assay at a final concentration of 70 pM. Test compounds are prepared as 10 mM stock solution in DMSO, then diluted in 384-well plates, first in DMSO, then assay buffer. On the day of the assay, cells are washed 3 times with 100 μl assay buffer and then incubated for 60 min (37° C., 5% CO2) in 60 μl assay buffer containing 1 μM Fluo-4AM ester, 0.02% pluronic acid, and 1% BSA. The dye loading solution is then aspirated and cells are washed 3 times with 100 μl assay buffer. 30 μl of that same buffer is left in each well. Within the Fluorescent Imaging Plate Reader (FLIPR, Molecular Devices), test compounds are added to the plate in a volume of 25 μl, incubated for 5 min and finally 25 μl of agonist is added. Fluorescence is measured for each well at 1 second intervals for 5 minutes and the height of each fluorescence peak is compared to the height of the fluorescence peak induced by 70 pM Ala-6,12 orexin-A with buffer in place of antagonist. For each antagonist, IC50 value (the concentration of compound needed to inhibit 50% of the agonist response) is determined Alternatively, compound potency can be assessed by a radioligand binding assay (described in Bergman et. al. Bioorg. Med. Chem. Lett. 2008, 18, 1425-1430) in which the inhibition constant (Ki) is determined in membranes prepared from CHO cells expressing either the OX1 or OX2 receptor. The intrinsic orexin receptor antagonist activity of a compound which may be used in the present invention may be determined by these assays.
A general note: A change in cytosolic calcium serves as a functional read-out for many receptors and channels.

Assay [1] deals with T2, hOX1R (Homo sapiens, UniProt O43613).
T2 sequence (O43613 1-425): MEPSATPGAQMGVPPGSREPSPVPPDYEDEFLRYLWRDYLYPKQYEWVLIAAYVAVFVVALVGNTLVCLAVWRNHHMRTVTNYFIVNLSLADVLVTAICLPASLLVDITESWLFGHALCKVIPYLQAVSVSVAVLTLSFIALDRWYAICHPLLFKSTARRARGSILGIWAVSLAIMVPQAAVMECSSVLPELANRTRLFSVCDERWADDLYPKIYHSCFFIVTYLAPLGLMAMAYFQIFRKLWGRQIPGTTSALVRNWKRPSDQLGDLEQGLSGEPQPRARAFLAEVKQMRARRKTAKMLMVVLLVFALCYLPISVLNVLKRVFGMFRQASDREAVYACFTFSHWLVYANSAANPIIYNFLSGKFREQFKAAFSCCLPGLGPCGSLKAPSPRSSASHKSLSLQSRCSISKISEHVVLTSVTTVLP
The experiment in a line: FLIPR Ca2+ Flux Assay, hOX1R. In kind it is cell-based. On the set-up: expressed in transfected cells; host or cells: CHO cells. The note with it: CHO cells expressing orexin-1 receptor; agonist 70 pM Ala-6,12 orexin-A.

The next assay has as its target T3, hOX2R (Homo sapiens, UniProt O43614).
T3 construct: expressed in transfected cells; host or cells: membranes of CHO cells
T3 sequence (O43614 1-444): T1 sequence (O43614 1-444)
The experiment in a line: radioligand binding assay, hOX2R. The note with it: membranes prepared from CHO cells expressing the OX2 receptor; read-out: hOX2R BIND hKi. On the procedure:
(§1) The utility of the compounds in accordance with the present invention as orexin receptor OX1R and/or OX2R antagonists may be readily determined without undue experimentation by methodology well known in the art, including the “FLIPR Ca^2+ Flux Assay” (Okumura et al., Biochem. Biophys. Res. Comm. 280:976-981, 2001). In a typical experiment the OX1 and OX2 receptor antagonistic activity of the compounds of the present invention was determined in accordance with the following experimental method. For intracellular calcium measurements, Chinese hamster ovary (CHO) cells expressing the rat orexin-1 receptor or the human orexin-2 receptor, are grown in Iscove's modified DMEM containing 2 mM L-glutamine, […], 1% hypoxanthine-thymidine supplement, 100 U/ml penicillin, 100 μg/ml streptomycin and 10% heat-inactivated fetal calf serum (FCS). The cells are seeded at 20,000 cells/well into Becton-Dickinson black 384-well clear bottom sterile plates coated with poly-D-lysine. All reagents were from GIBCO-Invitrogen Corp. The seeded plates are incubated overnight at 37° C. and 5% CO2. Ala-6,12 human orexin-A as the agonist is prepared as a 1 mM stock solution in 1% bovine serum albumin (BSA) and diluted in assay buffer (HBSS containing 20 mM HEPES, 0.1% BSA and 2.5 mM probenecid, pH7.4) for use in the assay at a final concentration of 70 pM. Test compounds are prepared as 10 mM stock solution in DMSO, then diluted in 384-well plates, first in DMSO, then assay buffer. On the day of the assay, cells are washed 3 times with 100 μl assay buffer and then incubated for 60 min (37° C., 5% CO2) in 60 μl assay buffer containing 1 μM Fluo-4AM ester, 0.02% pluronic acid, and 1% BSA. The dye loading solution is then aspirated and cells are washed 3 times with 100 μl assay buffer. 30 μl of that same buffer is left in each well. Within the Fluorescent Imaging Plate Reader (FLIPR, Molecular Devices), test compounds are added to the plate in a volume of 25 μl, incubated for 5 min and finally 25 μl of agonist is added. Fluorescence is measured for each well at 1 second intervals for 5 minutes and the height of each fluorescence peak is compared to the height of the fluorescence peak induced by 70 pM Ala-6,12 orexin-A with buffer in place of antagonist. […] The intrinsic orexin receptor antagonist activity of a compound which may be used in the present invention may be determined by these assays.

The target of assay [2] is T2, hOX1R. Put plainly: radioligand binding assay, hOX1R. On the set-up: expressed in transfected cells; host or cells: membranes of CHO cells. Particulars: membranes prepared from CHO cells expressing the OX1 receptor; read-out: hOX1R BIND hKi. On the procedure:
as §1

The IC50 is the concentration that inhibits the measured activity by half. Lower therefore signals greater potency.

On to `CSc1ccnc(O[C@@H]2CC[C@@H](C)N(C(=O)c3ccccc3-n3nccn3)C2)c1C#N` [Example 1, 4-(Methylsulfanyl)-2-{[(3R,6R)-6-methyl-1-{[2-(2H-1,2,3-triazol-2-yl)phenyl]carbonyl}-piperidin-3-yl]oxy}pyridine-3-carbonitrile], for which the results for the IC50 on human orexin-2 receptor and at hOX1R [1] were 39 nM and 7.44 µM, respectively.

Regarding `Cc1ccnc(O[C@@H]2CC[C@@H](C)N(C(=O)c3ccccc3-n3nccn3)C2)c1C#N` [Example 2, 4-Methyl-2{[(3R,6R)-6-methyl-1-{[2-(2H-1,2,3-triazol-2-yl)phenyl]carbonyl}piperidin-3-yl]oxy}pyridine-3-carbonitrile], the results for the half-inhibitory concentration (IC50) at human orexin-2 receptor and on hOX1R [1] were 9.8 nM and 0.464 µM, respectively.

In the case of `Cc1ccnc(O[C@@H]2CC[C@@H](C)N(C(=O)c3ccc(Cl)cc3-n3nccn3)C2)c1C#N` [Example 3, 2-{[(3R,6R)-1-{[4-Chloro-2(2H-1,2,3-triazol-2-yl)phenyl]carbonyl}-6-methylpiperidin-3-yl]oxy}-4-methylpyridine-3-carbonitrile], the IC50 was determined as 73.6 nM on human orexin-2 receptor and 3.71 µM at hOX1R [1].

In the case of `Cc1ccnc(O[C@@H]2CC[C@@H](C)N(C(=O)c3cnccc3-n3nccn3)C2)c1C#N` [Example 4, 4-methyl-2-{[(3R,6R)-6-methyl-1-{[4-(2H-1,2,3-triazol-2-yl)pyridin-3-yl]carbonyl}piperidin-3-yl]oxy}pyridine-3-carbonitrile], the Ki on hOX2R is 54 nM; at hOX1R [2], 1290 nM.

With `Cc1ccnc(O[C@@H]2CC[C@@H](C)N(C(=O)c3c(F)cccc3-n3nccn3)C2)c1C#N` [Example 5, 2-{[(3R,6R)-1-{[2-fluoro-6-(2H-1,2,3-triazol-2-yl)phenyl]carbonyl}-6-methylpiperidin-3-yl]oxy}-4-methylpyridine-3-carbonitrile], the Ki at hOX2R came to 34 nM; on hOX1R [2] it was 3610 nM.

For the molecule `COc1cccc(-n2nccn2)c1C(=O)N1C[C@H](Oc2nccc(C)c2C#N)CC[C@H]1C` [Example 6, 2-{[(3R,6R)-1-{[2-methoxy-6-(2H-1,2,3-triazol-2-yl)phenyl]carbonyl}-6-methylpiperidin-3-yl]oxy}-4-methylpyridine-3-carbonitrile], the values for the concentration for half-maximal inhibition (IC50) at human orexin-2 receptor and on hOX1R [1] were 67.6 nM and 1.16 µM, respectively.

`Cc1ccnc(O[C@@H]2CC[C@@H](C)N(C(=O)c3cccc(C)c3-n3nccn3)C2)c1C#N` [Example 7, 4-methyl-2-{[(3R,6R)-6-methyl-1-{[3-methyl-2-(2H-1,2,3-triazol-2-yl)phenyl]carbonyl}piperidin-3-yl]oxy}pyridine-3-carbonitrile]: the values for the IC50 at human orexin-2 receptor and on hOX1R [1] were 20.3 nM and 0.457 µM, respectively.

Regarding `Cc1ccnc(O[C@@H]2CC[C@@H](C)N(C(=O)c3ccc(F)cc3-n3nccn3)C2)c1C#N` [Example 8, 2-{[(3R,6R)-1-{[4-fluoro-2-(2H-1,2,3-triazol-2-yl)phenyl]carbonyl}-6-methylpiperidin-3-yl]oxy}-4-methylpyridine-3-carbonitrile], the IC50 on human orexin-2 receptor worked out at 59.8 nM; at hOX1R [1], 7.39 µM.

For `COc1ccc(C(=O)N2C[C@H](Oc3nccc(C)c3C#N)CC[C@H]2C)c(-n2nccn2)c1` [Example 9, 2-{[(3R,6R)-1-{[4-methoxy-2-(2H-1,2,3-triazol-2-yl)phenyl]carbonyl}-6-methylpiperidin-3-yl]oxy}-4-methylpyridine-3-carbonitrile], the Ki worked out at 60 nM on hOX2R and 5660 nM at hOX1R [2].

As to `Cc1ccnc(O[C@@H]2CC[C@@H](C)N(C(=O)c3cccc(F)c3-n3nccn3)C2)c1C#N` [Example 10, 2-{[(3R,6R)-1-{[3-fluoro-2-(2H-1,2,3-triazol-2-yl)phenyl]carbonyl}-6-methylpiperidin-3-yl]oxy}-4-methylpyridine-3-carbonitrile], the IC50 came out at 42.6 nM at human orexin-2 receptor and 3.65 µM at hOX1R [1].

Consider `Cc1ccc(-n2nccn2)c(C(=O)N2C[C@H](Oc3nccc(C)c3C#N)CC[C@H]2C)c1` [Example 11, 4-methyl-2-{[(3R,6R)-6-methyl-1-{[5-methyl-2-(2H-1,2,3-triazol-2-yl)phenyl]carbonyl}piperidin-3-yl]oxy}pyridine-3-carbonitrile], for which the Ki on hOX2R came to 24 nM; on hOX1R [2], 7 nM.

As for `COc1ccc(C(=O)N2C[C@H](Oc3nccc(C)c3C#N)CC[C@H]2C)c(-n2nccn2)n1` [Example 12, 2-{[(3R,6R)-1-{[6-methoxy-2-(2H-1,2,3-triazol-2-yl)pyridin-3-yl]carbonyl}-6-methylpiperidin-3-yl]oxy}-4-methylpyridine-3-carbonitrile], the IC50 on human orexin-2 receptor amounted to 280 nM; on hOX1R [1], 10 µM.

Values taken from US9643955B2, “2-pyridyloxy-3-nitrile-4-substituted orexin receptor antagonists” (MERCK SHARP & DOHME CORP., priority 2012, dated 2017).
